Structures are written as SMILES.

Sequence of PRMT5-MEP50 enzyme complex (O14744 2-637): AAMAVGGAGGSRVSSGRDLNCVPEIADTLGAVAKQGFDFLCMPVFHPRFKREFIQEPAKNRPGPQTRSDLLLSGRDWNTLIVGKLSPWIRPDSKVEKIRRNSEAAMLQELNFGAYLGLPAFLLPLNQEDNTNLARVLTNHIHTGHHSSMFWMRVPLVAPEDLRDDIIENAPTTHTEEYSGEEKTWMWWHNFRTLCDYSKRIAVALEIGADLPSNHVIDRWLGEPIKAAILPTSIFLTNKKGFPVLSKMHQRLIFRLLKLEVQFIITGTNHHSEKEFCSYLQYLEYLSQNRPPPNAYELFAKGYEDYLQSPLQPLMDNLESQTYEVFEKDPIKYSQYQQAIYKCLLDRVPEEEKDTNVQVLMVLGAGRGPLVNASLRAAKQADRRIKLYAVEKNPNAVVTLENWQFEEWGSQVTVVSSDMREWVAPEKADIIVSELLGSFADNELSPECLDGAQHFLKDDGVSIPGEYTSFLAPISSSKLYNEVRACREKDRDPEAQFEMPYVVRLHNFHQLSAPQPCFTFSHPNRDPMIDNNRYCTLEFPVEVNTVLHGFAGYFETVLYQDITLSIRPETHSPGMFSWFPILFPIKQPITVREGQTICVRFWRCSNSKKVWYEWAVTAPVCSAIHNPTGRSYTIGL
Sequence of PRMT5-MEP50 enzyme complex (Q9BQA1 2-342 partner): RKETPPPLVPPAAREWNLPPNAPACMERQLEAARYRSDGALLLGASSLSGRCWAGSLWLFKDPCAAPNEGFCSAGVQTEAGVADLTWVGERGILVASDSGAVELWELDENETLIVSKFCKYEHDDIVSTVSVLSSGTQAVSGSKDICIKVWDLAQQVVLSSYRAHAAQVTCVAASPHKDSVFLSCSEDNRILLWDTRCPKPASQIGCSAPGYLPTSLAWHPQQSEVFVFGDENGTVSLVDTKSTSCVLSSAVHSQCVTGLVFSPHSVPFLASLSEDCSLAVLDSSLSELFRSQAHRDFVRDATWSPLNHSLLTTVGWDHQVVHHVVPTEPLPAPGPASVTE

The experiment concerns the target PRMT5-MEP50 enzyme complex (Homo sapiens (Human), UniProt O14744). Nature of the experiment: PRMT5 enzyme activity in vitro assay (methylation of histone H4R3, ELISA absorbance at 450 nm). The class given is biochemical. The following applies: SAM, histone H4 peptide, room temperature 2 hours, 8 points from 10 μM to 0.128 nM. The method, boiled down:
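IC50 was derived from ELISA absorbance at 450 nm, using primary and HRP antibodies against H4R3 methylation on immobilised histone H4 peptide (residues 1-20). Compounds (10 μM to 0.128 nM, 8 points, 1:5) were incubated 2 h at room temperature with the PRMT5-MEP50 complex and SAM, diluted to 5 μg/mL and 2 μM respectively.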
(In general: ELISA stands for enzyme-linked immunosorbent assay.)
In general, IC50 refers to the concentration that inhibits the measured activity by half. A higher IC50 goes with weaker potency in that assay. `CCN1CC2(CC(Oc3ccc4c(c3)OCCN(C[C@H](O)CN3CCc5ccccc5C3)C4=O)C2)C1` [Example 172, 4-[(2R)-3-(3,4-dihydro-1H-isoquinolin-2-yl)-2-hydroxy-propyl]-8-[(2-ethyl-2-azaspiro[3.3]heptan-6-yl)oxy]-2,3-dihydro-1,4-benzoxazepin-5-one] showed an IC50 of 100 to 1000 nM. The figure for `CC(=O)N1C2CCC1CC(Oc1ccc3c(c1)OCCN(C[C@H](O)CN1CCc4ccccc4C1)C3=O)C2` (stereo partly drawn) [Example 173, 8-[(8-acetyl-8-azabicyclo[3.2.1]octan-3-yl)oxy]-4-[(2R)-3-(3,4-dihydro-1H-isoquinolin-2-yl)-2-hydroxy-propyl]-2,3-dihydro-1,4-benzoxazepin-5-one] is 1 to 100 nM; for `CC(=O)N1CC2(CC(Oc3ccc4c(c3)OCCN(C[C@H](O)CN3CCc5ccccc5C3)C4=O)C2)C1` [Example 174, 8-[(2-acetyl-2-azaspiro[3.3]heptan-6-yl)oxy]-4-[(2R)-3-(3,4-dihydro-1H-isoquinolin-2-yl)-2-hydroxy-propyl]-2,3-dihydro-1,4-benzoxazepin-5-one] it is 1 to 100 nM.

Compound `O=C(c1ccc2c(c1)OCCN(C[C@H](O)CN1CCc3ccccc3C1)C2=O)N1CCCC1` [Example 175, 4-[(2R)-3-(3,4-dihydro-1H-isoquinolin-2-yl)-2-hydroxy-propyl]-8-(pyrrolidin-1-carbonyl)-2,3-dihydro-1,4-benzoxazepin-5-one] registered a half-maximal inhibitory concentration (IC50) of 100 to 1000 nM. Regarding `O=C(c1ccc2c(c1)OCCN(C[C@H](O)CN1CCc3ccccc3C1)C2=O)N1CCCCC1` [Example 176, 4-[(2R)-3-(3,4-dihydro-1H-isoquinolin-2-yl)-2-hydroxy-propyl]-8-(piperidine-1-carbonyl)-2,3-dihydro-1,4-benzoxazepin-5-one], the IC50 fell in the range of 100 to 1000 nM. The result for `O=C(c1ccc2c(c1)OCCN(C[C@H](O)CN1CCc3ccccc3C1)C2=O)N1CCC(F)(F)C1` [Example 177, 8-(3,3-difluoropyrrolidin-1-carbonyl)-4-[(2R)-3-(3,4-dihydro-1H-isoquinolin-2-yl)-2-hydroxy-propyl]-2,3-dihydro-1,4-benzoxazepin-5-one] reads 100 to 1000 nM.

On to `CN1CCN(C(=O)c2ccc3c(c2)OCCN(C[C@H](O)CN2CCc4ccccc4C2)C3=O)CC1` [Example 178, 4-[(2R)-3-(3,4-dihydro-1H-isoquinolin-2-yl)-2-hydroxy-propyl]-8-(4-methylpiperazine-1-carbonyl)-2,3-dihydro-1,4-benzoxazepin-5-one], for which the IC50 lay within 100 to 1000 nM. Compound `CC1(C)CN(C[C@H](O)CN2CCc3ccccc3C2)C(=O)c2ccc(CN3CCCC3)cc2O1` [Example 179, 4-[(2R)-3-(3,4-dihydro-1H-isoquinolin-2-yl)-2-hydroxy-propyl]-2,2-dimethyl-8-(pyrrolidin-1-ylmethyl)-3H-1,4-benzoxazepin-5-one] displayed an IC50 of 100 to 1000 nM. The result for `CC(=O)N1CCC(Oc2ccc3c(c2)OC(C)(C)CN(C[C@H](O)CN2CCc4ccccc4C2)C3=O)CC1` [Example 180, 8-[(1-acetyl-4-piperidyl)oxy]-4-[(2R)-3-(3,4-dihydro-1H-isoquinolin-2-yl)-2-hydroxy-propyl]-2,2-dimethyl-3H-1,4-benzoxazepin-5-one] reads 1 to 100 nM; that for `CC1(C)CN(C[C@H](O)CN2CCc3ccccc3C2)C(=O)c2ccc(OC3CCN(C=O)CC3)cc2O1` [Example 181, 4-[[4-[(2R)-3-(3,4-dihydro-1H-isoquinolin-2-yl)-2-hydroxy-propyl]-2,2-dimethyl-5-oxo-3H-1,4-benzoxazepin-8-yl]oxy]piperidine-1-carbaldehyde], 100 to 1000 nM.

In turn, `CC1(C)CN(C[C@H](O)CN2CCc3ccccc3C2)C(=O)c2ccc(CN3CCN(C4COC4)CC3)cc2O1` [Example 182, 4-[(2R)-3-(3,4-dihydro-1H-isoquinolin-2-yl)-2-hydroxy-propyl]-2,2-dimethyl-8-[[4-(oxetan-3-yl)piperazin-1-yl]methyl]-3H-1,4-benzoxazepin-5-one] registered an IC50 of 100 to 1000 nM. The figure for `CC1(C)CN(C[C@H](O)CN2CCc3ccccc3C2)C(=O)c2ccc(CN3CCC4(COC4)C3)cc2O1` [Example 183, 4-[(2R)-3-(3,4-dihydro-1H-isoquinolin-2-yl)-2-hydroxy-propyl]-2,2-dimethyl-8-(2-oxa-7-azaspiro[3.4]octan-7-ylmethyl)-3H-1,4-benzoxazepin-5-one] is 100 to 1000 nM. For the compound `O=C(c1ccc2c(c1)OCCN(C[C@H](O)CN1CCc3ccccc3C1)C2=O)N1CCC(F)CC1` [Example 184, 4-[(2R)-3-(3,4-dihydro-1H-isoquinolin-2-yl)-2-hydroxy-propyl]-8-(4-fluoropiperidine-1-carbonyl)-2,3-dihydro-1,4-benzoxazepin-5-one], the concentration for half-maximal inhibition (IC50) is 100 to 1000 nM. The result for `O=C(c1ccc2c(c1)OCCN(C[C@H](O)CN1CCc3ccccc3C1)C2=O)N1CCCC(C(F)(F)F)C1` (stereo partly drawn) [Example 185, 4-[(2R)-3-(3,4-dihydro-1H-isoquinolin-2-yl)-2-hydroxy-propyl]-8-[3-(trifluoromethyl)piperidine-1-carbonyl]-2,3-dihydro-1,4-benzoxazepin-5-one] reads 100 to 1000 nM; that for `O=C(c1ccc2c(c1)OCCN(C[C@H](O)CN1CCc3ccccc3C1)C2=O)N1CCC(C(F)(F)F)CC1` [Example 186, 4-[(2R)-3-(3,4-dihydro-1H-isoquinolin-2-yl)-2-hydroxy-propyl]-8-[4-(trifluoromethyl)piperidine-1-carbonyl]-2,3-dihydro-1,4-benzoxazepin-5-one], 100 to 1000 nM; that for `CC1CN(C(=O)c2ccc3c(c2)OCCN(C[C@H](O)CN2CCc4ccccc4C2)C3=O)CC(C)O1` (stereo partly drawn) [Example 187, 4-[(2R)-3-(3,4-dihydro-1H-isoquinolin-2-yl)-2-hydroxy-propyl]-8-(2,6-dimethylmorpholin-4-carbonyl)-2,3-dihydro-1,4-benzoxazepin-5-one], 100 to 1000 nM. The compound `O=C1c2ccc(C(=O)N3CC4CCC3C4)cc2OCCN1C[C@H](O)CN1CCc2ccccc2C1` (stereo partly drawn) [Example 188, 8-(2-azabicyclo[2.2.1]heptane-2-carbonyl)-4-[(2R)-3-(3,4-dihydro-1H-isoquinolin-2-yl)-2-hydroxy-propyl]-2,3-dihydro-1,4-benzoxazepin-5-one] gave an IC50 of 100 to 1000 nM. The figure for `O=C1c2ccc(C(=O)N3C4CCC3COC4)cc2OCCN1C[C@H](O)CN1CCc2ccccc2C1` [Example 189, 4-[(2R)-3-(3,4-dihydro-1H-isoquinolin-2-yl)-2-hydroxy-propyl]-8-(3-oxa-8-azabicyclo[3.2.1]octan-8-carbonyl)-2,3-dihydro-1,4-benzoxazepin-5-one] is 100 to 1000 nM; for `CC1CN(C(=O)c2ccc3c(c2)OCCN(C[C@H](O)CN2CCc4ccccc4C2)C3=O)CCO1` (stereo partly drawn) [Example 190, 4-[(2R)-3-(3,4-dihydro-1H-isoquinolin-2-yl)-2-hydroxy-propyl]-8-(2-methylmorpholin-4-carbonyl)-2,3-dihydro-1,4-benzoxazepin-5-one] it is 100 to 1000 nM. The figure for `CC1COCCN1C(=O)c1ccc2c(c1)OCCN(C[C@H](O)CN1CCc3ccccc3C1)C2=O` (stereo partly drawn) [Example 191, 4-[(2R)-3-(3,4-dihydro-1H-isoquinolin-2-yl)-2-hydroxy-propyl]-8-(3-methylmorpholin-4-carbonyl)-2,3-dihydro-1,4-benzoxazepin-5-one] is 100 to 1000 nM; for `CC1(C)CN(C[C@H](O)CN2CCc3ccccc3C2)C(=O)c2ccc(CN3CCOCC3)nc2O1` [Example 192, 4-[(2R)-3-(3,4-dihydro-1H-isoquinolin-2-yl)-2-hydroxy-propyl]-2,2-dimethyl-8-(morpholinomethyl)-3H-pyrido[3,2-f][1,4]oxazepin-5-one] it is 100 to 1000 nM. The figure for `O=C(c1ccc2c(c1)OCCN(C[C@H](O)CN1CCc3ccccc3C1)C2=O)N1CC2CCCC2C1` (stereo partly drawn) [Example 193, 8-(3,3a,4,5,6,6a-hexahydro-1H-cyclopenta[c]pyrrol-2-carbonyl)-4-[(2R)-3-(3,4-dihydro-1H-isoquinolin-2-yl)-2-hydroxy-propyl]-2,3-dihydro-1,4-benzoxazepin-5-one] is 100 to 1000 nM.

`O=C(c1ccc2c(c1)OCCN(C[C@H](O)CN1CCc3ccccc3C1)C2=O)N1CCCC(F)C1` (stereo partly drawn) [Example 194, 4-[(2R)-3-(3,4-dihydro-1H-isoquinolin-2-yl)-2-hydroxy-propyl]-8-(3-fluoropiperidine-1-carbonyl)-2,3-dihydro-1,4-benzoxazepin-5-one]: the IC50 lay in the range of 100 to 1000 nM. The figure for `O=C(c1ccc2c(c1)OCCN(C[C@H](O)CN1CCc3ccccc3C1)C2=O)N1CCOC(F)(F)C1` [Example 195, 8-(2,2-difluoromorpholin-4-carbonyl)-4-[(2R)-3-(3,4-dihydro-1H-isoquinolin-2-yl)-2-hydroxy-propyl]-2,3-dihydro-1,4-benzoxazepin-5-one] is 100 to 1000 nM; for `O=C(c1ccc2c(c1)OCCN(C[C@H](O)CN1CCc3ccccc3C1)C2=O)N1CCC(F)(F)CC1` [Example 196, 8-(4,4-difluoropiperidine-1-carbonyl)-4-[(2R)-3-(3,4-dihydro-1H-isoquinolin-2-yl)-2-hydroxy-propyl]-2,3-dihydro-1,4-benzoxazepin-5-one] it is 100 to 1000 nM.

As to `CC1(C)CN(C[C@H](O)CN2CCc3ccccc3C2)C(=O)c2ccc(CN3CCCCC3)nc2O1` [Example 197, 4-[(2R)-3-(3,4-dihydro-1H-isoquinolin-2-yl)-2-hydroxy-propyl]-2,2-dimethyl-8-(1-piperidylmethyl)-3H-pyrido[3,2-f][1,4]oxazepin-5-one], the IC50 fell in the range of 100 to 1000 nM.

For `CN(C1CCC(Oc2ccc3c(c2)OCCN(C[C@H](O)CN2CCc4ccccc4C2)C3=O)CC1)C1COC1` (stereo partly drawn) [Example 198, 4-[(2R)-3-(3,4-dihydro-1H-isoquinolin-2-yl)-2-hydroxypropyl]-8-[4-[methyl(oxetan-3-yl)amino]cyclohexoxy]-2,3-dihydro-1,4-benzoxazepin-5-one], the 50% inhibitory concentration (IC50) lay in the range of 1 to 100 nM.
